Results on 71 compounds are retold here after patent publication US20230092163A1, “COMPOUNDS AND COMPOSITIONS FOR TREATING CONDITIONS ASSOCIATED WITH STING ACTIVITY” (IFM Due, Inc., priority 2019, published 2023).

The experiment addresses STING (Homo sapiens, UniProt Q86WV6, G230A/H232R/R293Q/R71H). Kind of experiment: STING reporter assay: THP1-Dual KO-IFNAR2 cells stimulated with 2′3′cGAMP, luciferase reporter activity. The class given is cell-based. Particulars: 15 μM 2′3′cGAMP, 24h. As for the experimental part: STING pathway activation by the compounds described herein were measured using THP1-Dual™ cells (KO-IFNAR2).
THP1-Dual™ KO-IFNAR2 Cells (obtained from invivogen) were maintained in RPMI, 10% FCS, 5 ml P/S, 2 mM L-glut, 10 mM Hepes, and 1 mM sodium pyruvate. Compounds were spotted in empty 384 well tissue culture plates (Greiner 781182) by Echo for a final concentration of 0.0017-100 μM. Cells were plated into the TC plates at 40 μL per well, 2×10E6 cells/mL. For activation with STING ligand, 2′3′cGAMP (MW 718.38, obtained from Invivogen), was prepared in Optimem media.
The following solutions were prepared for each 1×384 plate: • Solution A: 2 mL Optimem with one of the following stimuli: • 60 uL of 10 mM 2′3′cGAMP ->150 μM stock • Solution B: 2 mL Optimem with 60 μL Lipofectamine 2000->Incubate 5 min at RT
2 mL of solution A and 2 ml Solution B was mixed and incubated for 20 min at room temperature (RT). 20 uL of transfection solution (A+B) was added on top of the plated cells, with a final 2′3′cGAMP concentration of 15 μM. The plates were then centrifuged immediately at 340 g for 1 minute, after which they were incubated at 37° C., 5% CO2, >98% humidity for 24h. Luciferase reporter activity was then measured. EC50 values were calculated by using standard methods known in the art.
Luciferase reporter assay: 10 μL of supernatant from the assay was transferred to white 384-plate with flat bottom and squared wells. One pouch of QUANTI-Luc™ Plus was dissolved in 25 mL of water. 100 μL of QLC Stabilizer per 25 mL of QUANTI-Luc™ Plus solution was added. 50 μL of QUANTI-Luc™ Plus/QLC solution per well is then added. Luminescence is measured on a Platereader (e.g., Spectramax I3X (Molecular Devices GF3637001)).
Luciferase reporter activity was then measured. EC50 values were calculated by using standard methods known in the art.
In general terms: Reporter assays use an easily measured gene product as a stand-in for the process of interest.

pEC50: −log10 of the molar value.

In general, pEC50 refers to the EC50 on a negative log10 scale, so that one unit is a factor of ten. Low readings indicate a high EC50, high ones a low EC50.

STING, sequence (Q86WV6 whole entry R71H/G230A/H232R/R293Q): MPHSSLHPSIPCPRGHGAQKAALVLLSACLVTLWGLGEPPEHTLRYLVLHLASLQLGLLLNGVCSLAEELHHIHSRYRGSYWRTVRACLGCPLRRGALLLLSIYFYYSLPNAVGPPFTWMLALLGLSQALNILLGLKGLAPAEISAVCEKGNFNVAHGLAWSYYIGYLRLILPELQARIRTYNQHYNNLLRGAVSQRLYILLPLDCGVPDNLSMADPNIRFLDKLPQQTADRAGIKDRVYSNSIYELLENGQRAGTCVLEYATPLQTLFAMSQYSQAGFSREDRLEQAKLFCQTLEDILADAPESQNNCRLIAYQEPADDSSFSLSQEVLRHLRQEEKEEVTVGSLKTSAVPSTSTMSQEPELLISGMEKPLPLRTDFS

For `C[C@H](NC(=O)Nc1cc(Cl)c2cc[nH]c2c1)c1cc(Cl)cc(C(F)(F)F)c1` (single isomer, unassigned) [Compound 520], the pEC50 (class symbols) is 6.00 to 6.70.
For the setting “class symbols”, `O=C(Nc1ccc(C(F)(F)F)cc1)Nc1ccc2cc[nH]c2c1` [Compound 101] had a negative logarithm of the EC50 (pEC50) of 6.70 to 7.40.
On the same count and under the same terms, next, `O=C(Nc1ccc(C(F)(F)F)cc1)Nc1ccc2[nH]ccc2c1` [Compound 102]: 5.30 to 6.00; `O=C(Nc1ccc(C(F)(F)F)cc1)Nc1cc2[nH]ccc2cn1` [Compound 110]: 4.00 to 5.30.
Still for that read-out and setting: with `O=C(Nc1ccc(C(F)(F)F)cc1)Nc1cnc2cc[nH]c2c1` [Compound 111] the figure was 6.00 to 6.70.
Take `CCCCc1ccc(Nc2c(Nc3ccc4cc[nH]c4c3)c(=O)c2=O)cc1` [Compound 113]: the pEC50 (numeric bounds) is less than 4.83.
Regarding `C#Cc1ccc(NC(=O)Nc2ccc3[nH]ccc3c2)cc1` [Compound 151], the negative-log EC50 (pEC50) (class symbols) is 4.00 to 5.30.
For the compound `C#Cc1ccc(NC(=O)Nc2ccc3cc[nH]c3c2)cc1` [Compound 152], the pEC50 (class symbols) is 6.00 to 6.70.
Compound `O=C(Nc1cc(F)cc(C(F)(F)F)c1)Nc1cc(Cl)c2cc[nH]c2c1` [Compound 153] gave a pEC50 (class symbols) of 6.00 to 6.70.
As to `O=C(NCC1(c2cccc(Cl)c2)CCOCC1)Nc1ccc2cc[nH]c2c1` [Compound 154], under “numeric bounds”, the pEC50 was less than 4.52.
On to `O=C(Nc1ccc(C(F)(F)F)cc1)Nc1cc(Br)c2cc[nH]c2c1` [Compound 155], for which, where the note is “class symbols”, the pEC50 is 6.70 to 7.40.
The compound `Cc1cc(NC(=O)Nc2ccc(C(F)(F)F)cc2)cc2c1ccn2-c1cn[nH]c1` [Compound 156] gave a pEC50 (numeric bounds) of less than 4.52.
Compound `O=C(Nc1ccc(C(F)(F)F)cc1)Nc1cc(CO)c2cc[nH]c2c1` [Compound 157] had a pEC50 (numeric bounds) of less than 4.52.
Still for that read-out and setting: next, `N#Cc1ccc(CNC(=O)Nc2ccc3cc[nH]c3c2)c(C(F)(F)F)c1` [Compound 159]: less than 4.52.
As for `O=C(Nc1ccc(Oc2c(F)cccc2F)cc1)Nc1ccc2cc[nH]c2c1` [Compound 160], the pEC50 (class symbols) is 5.30 to 6.00.
For the compound `O=C(Nc1ccc2cc[nH]c2c1)NC1Cc2ccccc2C1` [Compound 161], the pEC50 (numeric bounds) is less than 4.52.
Compound `O=C(NCCC1CC1)Nc1ccc2cc[nH]c2c1` [Compound 162] had a negative logarithm of the EC50 (pEC50) (class symbols) of 4.00 to 5.30.
Still for that read-out and setting: with `O=C(Nc1ccc(F)c(F)c1)Nc1ccc2cc[nH]c2c1` [Compound 164] the figure was 6.00 to 6.70.
In turn, `COC(=O)c1cc(NC(=O)Nc2ccc(C(F)(F)F)cc2)cc2[nH]ccc12` [Compound 165] gave a pEC50 (class symbols) of 6.00 to 6.70.
In the case of `O=C(Nc1ccc(C(F)(F)F)cc1)Nc1cc(C(=O)O)c2cc[nH]c2c1` [Compound 166], the negative-log EC50 (pEC50) (numeric bounds) was less than 4.52.
Turning to `O=C(Nc1ccc(C(F)(F)F)cc1)Nc1cc(-c2cn[nH]c2)c2cc[nH]c2c1` [Compound 167], the pEC50 (class symbols) was 5.30 to 6.00.
Same read-out and setting: with `O=C(Nc1cccc(S(=O)(=O)N2CCCC2)c1)Nc1ccc2cc[nH]c2c1` [Compound 168] the figure was 4.00 to 5.30.
Same read-out and setting: with `O=C(Nc1ccc(C(F)(F)F)cc1)Nc1cc(-c2ccccc2)c2cc[nH]c2c1` [Compound 169] the figure was 5.30 to 6.00.
Regarding `O=C(Nc1ccc2cc[nH]c2c1)Nc1ccc2cc[nH]c2c1` [Compound 170], the pEC50 (class symbols) is 5.30 to 6.00.
For the compound `CC1(CNC(=O)Nc2ccc3cc[nH]c3c2)CCC(F)(F)CC1` [Compound 171], the pEC50 (numeric bounds) is less than 4.52.
For the setting “class symbols”, `CC(Cc1cccc(C(F)(F)F)c1)NC(=O)Nc1ccc2cc[nH]c2c1` (centres unmarked) [Compound 172] had a pEC50 of 5.30 to 6.00.
For the compound `O=C(NCCc1c[nH]c2cc(OC(F)(F)F)ccc12)Nc1ccc2cc[nH]c2c1` [Compound 173], where the note is “class symbols”, the negative-log EC50 (pEC50) is 6.00 to 6.70.
Where the note is “class symbols”, `O=C(NCCN1CCC(Cc2ccccc2)CC1)Nc1ccc2cc[nH]c2c1` [Compound 174] showed a pEC50 of 4.00 to 5.30.
`O=C(NCCOc1cccc(Br)c1)Nc1ccc2cc[nH]c2c1` [Compound 175]: the pEC50 (class symbols) is 5.30 to 6.00.
On the same count and under the same terms, with `O=C(NCc1ccc(OCC(F)(F)F)nc1)Nc1ccc2cc[nH]c2c1` [Compound 176] the figure was 5.30 to 6.00; with `O=C(NCCCc1cncc(C(F)(F)F)c1)Nc1ccc2cc[nH]c2c1` [Compound 177], 5.30 to 6.00.
`CC(C)(C)OC(=O)N1CC(CCNC(=O)Nc2ccc3cc[nH]c3c2)C1` [Compound 178] had a pEC50 (numeric bounds) of less than 4.52.
On to `CCS(=O)(=O)c1ccc(CNC(=O)Nc2ccc3cc[nH]c3c2)cn1` [Compound 179], for which the pEC50 (numeric bounds) was less than 4.52.
On the same count and under the same terms, next, `CCn1cc(CNC(=O)Nc2ccc3cc[nH]c3c2)cn1` [Compound 180]: less than 4.52.
`O=C(Nc1ccc2cc[nH]c2c1)NC1CCc2ccc(C(F)(F)F)cc21` (centres unmarked) [Compound 181] showed a pEC50 (class symbols) of 5.30 to 6.00.
Consider `CC(C)c1ccc(-c2nnc(NC(=O)Nc3ccc4cc[nH]c4c3)s2)cc1` [Compound 182], for which, where the note is “class symbols”, the pEC50 is 6.00 to 6.70.
In the case of `O=C(NCCc1ccc(OC(F)(F)F)cc1)Nc1ccc2cc[nH]c2c1` [Compound 183], for the setting “class symbols”, the pEC50 is 6.00 to 6.70.
For `O=C(NCCc1ccccc1Br)Nc1ccc2cc[nH]c2c1` [Compound 184], the pEC50 (numeric bounds) is less than 4.52.
`Cc1cc(CNC(=O)Nc2ccc3cc[nH]c3c2)nn1C` [Compound 185]: the negative-log EC50 (pEC50) (numeric bounds) is less than 4.52.
`Cc1ccc(CCNC(=O)Nc2ccc3cc[nH]c3c2)cc1C` [Compound 186] showed a pEC50 (class symbols) of 5.30 to 6.00.
`O=C(NCCc1ccccc1)Nc1ccc2cc[nH]c2c1` [Compound 187]: the negative logarithm of the EC50 (pEC50) (numeric bounds) was less than 4.52.
Where the note is “class symbols”, `CCCCCNC(=O)Nc1ccc2cc[nH]c2c1` [Compound 188] had a pEC50 of 5.30 to 6.00.
Under “numeric bounds”, `Cn1cc(NC(=O)Nc2ccc3cc[nH]c3c2)cn1` [Compound 189] had a pEC50 of less than 4.52.
In turn, `O=C(Nc1ccc2cc[nH]c2c1)Nc1ccon1` [Compound 190] showed a pEC50 (numeric bounds) of less than 4.52.
On the same count and under the same terms, next, `O=C(Nc1ccc2cc[nH]c2c1)Nc1ccno1` [Compound 191]: less than 4.52; `Cc1ccc(CNC(=O)Nc2ccc3cc[nH]c3c2)cc1` [Compound 192]: less than 4.52; `N#Cc1cc(F)cc(NC(=O)Nc2ccc3cc[nH]c3c2)c1` [Compound 193]: less than 4.52.
The compound `O=C(Nc1ccc2cc[nH]c2c1)Nc1ccccc1Cl` [Compound 194] gave a pEC50 (numeric bounds) of less than 4.52.
As for `N#Cc1ccc(OC2CCC(NC(=O)Nc3ccc4cc[nH]c4c3)CC2)cc1` (centres unmarked) [Compound 195], the pEC50 (class symbols) was 5.30 to 6.00.
Same read-out and setting: next, `O=C(Nc1ccc(C(F)(F)F)cc1)Nc1ccc2c(Br)c[nH]c2c1` [Compound 196]: 6.00 to 6.70.
In turn, `Cn1cc(-c2cc(NC(=O)Nc3ccc(C(F)(F)F)cc3)cc3[nH]ccc23)cn1` [Compound 197] showed a pEC50 (numeric bounds) of less than 4.52.
The compound `CN(C)S(=O)(=O)c1cccc(NC(=O)Nc2ccc3cc[nH]c3c2)c1` [Compound 198] gave a pEC50 (class symbols) of 4.00 to 5.30.
On the same count and under the same terms, next, `CCC(NC(=O)Nc1ccc2cc[nH]c2c1)c1cccc(C(F)(F)F)c1` (centres unmarked) [Compound 199]: 5.30 to 6.00.
For the compound `O=C(Nc1ccc(S(=O)(=O)C(F)(F)F)cc1)Nc1ccc2cc[nH]c2c1` [Compound 200], under “class symbols”, the negative-log EC50 (pEC50) was 6.00 to 6.70.
On the same count and under the same terms, with `O=C(NCCc1ncc(C(F)(F)F)cc1Cl)Nc1ccc2cc[nH]c2c1` [Compound 201] the figure was 5.30 to 6.00; with `CN(C)S(=O)(=O)c1ccc(NC(=O)Nc2ccc3cc[nH]c3c2)cc1` [Compound 202], 4.00 to 5.30.
`O=C(Nc1cccc(S(=O)(=O)C(F)(F)F)c1)Nc1ccc2cc[nH]c2c1` [Compound 203] showed a pEC50 (class symbols) of 5.30 to 6.00.
Still for that read-out and setting: with `O=C(NCCSCc1c(Cl)cccc1Cl)Nc1ccc2cc[nH]c2c1` [Compound 204] the figure was 5.30 to 6.00; with `O=C(NCc1cc(Cl)cc(C(F)(F)F)c1)Nc1ccc2cc[nH]c2c1` [Compound 205], 6.00 to 6.70; with `O=C(NCc1ccc(C(F)(F)F)c(Cl)c1)Nc1ccc2cc[nH]c2c1` [Compound 206], 5.30 to 6.00.
Still for that read-out and setting: with `O=C(NCc1ccc(Cl)c(C(F)(F)F)c1)Nc1ccc2cc[nH]c2c1` [Compound 207] the figure was 5.30 to 6.00.
On to `O=C(NCCc1ccc(Br)cc1)Nc1ccc2cc[nH]c2c1` [Compound 208], for which, where the note is “class symbols”, the pEC50 was 6.00 to 6.70.
For the setting “class symbols”, `O=C(NCCc1c(F)cccc1Cl)Nc1ccc2cc[nH]c2c1` [Compound 209] gave a pEC50 of 5.30 to 6.00.
Still for that read-out and setting: with `O=C(NCCc1cccc(Cl)c1)Nc1ccc2cc[nH]c2c1` [Compound 210] the figure was 5.30 to 6.00; with `O=C(NCCc1ccccc1Cl)Nc1ccc2cc[nH]c2c1` [Compound 211], 5.30 to 6.00.
The same measure, in the same setting: with `Cc1ccccc1CCNC(=O)Nc1ccc2cc[nH]c2c1` [Compound 212] the figure was 5.30 to 6.00.
In turn, `CC(CNC(=O)Nc1ccc2cc[nH]c2c1)c1ccccc1` (centres unmarked) [Compound 213] gave a pEC50 (numeric bounds) of less than 4.52.
As to `O=C(Nc1ccc2cc[nH]c2c1)N[C@@H]1C[C@H]1c1ccccc1` [Compound 214], where the note is “class symbols”, the pEC50 is 5.30 to 6.00.
`CC(C)CCNC(=O)Nc1ccc2cc[nH]c2c1` [Compound 215] gave a pEC50 (class symbols) of 5.30 to 6.00.
For the compound `O=C(NCC1CCC1)Nc1ccc2cc[nH]c2c1` [Compound 216], under “numeric bounds”, the pEC50 is less than 4.52.
Compound `CC(C)(C)c1cc(NC(=O)Nc2ccc3cc[nH]c3c2)on1` [Compound 217] showed a pEC50 (class symbols) of 4.00 to 5.30.
